System: hypoechoic-echolucent carotid and femoral atherosclerotic plaques
Assay: Grey Scale Median (GSM) ultrasound measurement of echolucent carotid and femoral atherosclerotic plaques, prospective 6-month trial
Type: in vivo, human
Conditions: once daily for 6 months, 100 mg/day of each component; responders/patients in group; ** = significant vs initial value and control
Method: Variation in echogenicity of echolucent carotid and femoral atherosclerotic plaques with combined treatment (Pycnogenol 100 mg+TTFCA 100 mg, with or without Aspirin 100 mg). A prospective, pilot 6-month trial. (TTFCA=total triterpenic fraction of Centella asiatica) This study has evaluated whether a combination of Pycnogenol® and TTFCA, with or without Aspirin, was effective in reducing plaque progression and cardiovascular risk of events by decreasing platelet aggregation, local arterial inflammation and the intima-media scarring process due to inflammation at the level of carotid and femoral arteries bifurcations. This prospective placebo-controlled trial had the purpose of evaluating the effects of Pycnogenol® and TTFCA, with or without Aspirin, selectivity on hypoechoic-echolucent plaques. The sonographic examination of carotid plaques was made with high-resolution ultrasound. Capturing plaques images, digital image processing, and normalization were standardized. The interobserver, […], gain-level variability were also standardized using as reference blood (black) for the most echolucent parts of the plaque and the adventitia (white) as the most echogenic part. The technique for plaque characterization and GSM (Grey Scale Median) measurements had been previously described in details. […]

With `CC(=O)Oc1ccccc1C(=O)O` [Aspirin, acetylsalicylic acid] the “At 6 months: number of patients with an increase of plaques Grey Scale Median of at least 5 points” value was 2/18.

Source: patent US9308230B2, “Combination of proanthocyanidins and centella asiatica for the treatment of atherosclerosis” (HORPHAG RESEARCH IP, priority 2009, dated 2016)
